Laboratory results as given in ChEMBL document CHEMBL4257493, “Discovery of 7-hydroxyaporphines as conformationally restricted ligands for beta-1 and beta-2 adrenergic receptors” (Medchemcomm, 2018).

Molecular target: Beta-2 adrenergic receptor (Homo sapiens, UniProt P07550)
Test: Displacement of [3H]-CGP-12177 from human beta2-adrenergic receptor

Beta-2 adrenergic receptor, sequence (P07550 whole entry): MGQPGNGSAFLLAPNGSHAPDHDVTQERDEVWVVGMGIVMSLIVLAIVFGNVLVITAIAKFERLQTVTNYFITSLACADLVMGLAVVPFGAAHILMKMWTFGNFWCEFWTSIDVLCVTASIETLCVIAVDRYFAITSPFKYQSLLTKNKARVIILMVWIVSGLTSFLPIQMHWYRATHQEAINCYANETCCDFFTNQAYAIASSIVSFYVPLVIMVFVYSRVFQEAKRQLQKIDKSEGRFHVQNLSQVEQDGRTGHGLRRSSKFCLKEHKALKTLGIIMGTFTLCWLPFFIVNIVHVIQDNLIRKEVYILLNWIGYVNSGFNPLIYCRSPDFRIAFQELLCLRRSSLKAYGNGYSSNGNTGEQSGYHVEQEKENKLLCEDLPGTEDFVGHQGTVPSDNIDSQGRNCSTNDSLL

Structure (SMILES) | IC50 [nM]
COc1cc2c3c(c1OC)-c1ccccc1[C@@H](O)[C@H]3NCC2 | 210
COc1cc2c3c(c1OC)-c1ccccc1[C@@H](O)[C@]3(C)NCC2 (relative stereo) | 20
COc1cc2c3c(c1OC)-c1ccccc1[C@H](O)[C@H]3NCC2 | 1600
